Data: patent US20140303164A1, “THERAPEUTIC COMPOUNDS” (Gilead Sciences, Inc., priority 2013, published 2014)

Tests used:
HIV-IIIb = experiment: Test A: Antiviral Assay in MT4 Cells; format: cell-based, HIV-1; settings: Human immunodeficiency virus 1, IIIB, MT4, 120 h; for inhibition at 0.2 µM: read-out: % inhibition at 0.2 μM; for inhibition at 2 µM: read-out: % inhibition at 2 μM
Procedure: Test A: Antiviral Assay in MT4 Cells
MT-4 cells were next mixed with HIV-IIIb at an m.o.i of 0.003 for 1 hour, after which time 35 μL of virus/cell mixture (2000 cells) was immediately added to each well containing 40 μL of diluted compound. The plates were then incubated at 37° C. for 5 days. […] Cell lysis was carried out by incubating at room temperature for 10 min and then chemiluminescence was read.

[1] = Test B: Cytotoxicity Assay; format: cell-based; settings: human, uninfected MT-4 cells, same protocol as Test A
Procedure, shortened: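 Uninfected MT-4 cells (2000 per well) incubated with diluted compound at 37° C. for 5 days, following the antiviral protocol without HIV-IIIb.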

Cn1nc(NS(C)(=O)=O)c2c(Cl)ccc(-c3ccc(C#CC(C)(O)CF)nc3[C@H](Cc3cc(F)cc(F)c3)NC(=O)Cn3nc(C(F)F)c4c3C(F)(F)[C@@H]3C[C@H]43)c21 (stereo partly drawn) [Compound 144, N-((1S)-1-(3-(4-chloro-1-methyl-3-(methylsulfonamido)-1H-indazol-7-yl)-6-(4-fluoro-3-hydroxy-3-methylbut-1-yn-1-yl)pyridin-2-yl)-2-(3,5-difluorophenyl)ethyl)-2-((3b-S,4aR)-3-(difluoromethyl)-5,5-difluoro-3b,4,4a,5-tetrahydro-1H-cyclopropa[3,4]cyclopenta[1,2-c]pyrazol-1-yl)acetamide]
inhibition at 0.2 µM (HIV-IIIb): 95% | inhibition at 2 µM (HIV-IIIb): 95% | CC50 at 5 days [1]: 16.2 µM

CC(C)(O)C#Cc1ccc(-c2cccc3c(NS(C)(=O)=O)noc23)c([C@H](Cc2cc(F)cc(F)c2)NC(=O)Cn2nc(C(F)(F)F)c3c2C(F)(F)[C@@H]2C[C@H]32)n1 [Compound 39C, 2-((3bS,4aR)-5,5-difluoro-3-(trifluoromethyl)-3b,4,4a,5-tetrahydro-1H-cyclopropa[3,4]cyclopenta[1,2-c]pyrazol-1-yl)-N—((S)-2-(3,5-difluorophenyl)-1-(6-(3-hydroxy-3-methylbut-1-yn-1-yl)-3-(3-(methylsulfonamido)benzo[d]isoxazol-7-yl)pyridin-2-yl)ethyl)acetamide]
inhibition at 0.2 µM (HIV-IIIb): 7% | inhibition at 2 µM (HIV-IIIb): 91% | CC50 at 5 days [1]: 26.5 µM

CC(C)(O)C#Cc1ccc(-c2cccn3c(NCC(F)(F)F)nnc23)c([C@H](Cc2cc(F)cc(F)c2)NC(=O)Cn2nc(C(F)F)c3c2C(F)(F)[C@@H]2C[C@H]32)n1 [Compound 117F, 2-((3b-S,4aR)-3-(difluoromethyl)-5,5-difluoro-3b,4,4a,5-tetrahydro-1H-cyclopropa[3,4]cyclopenta[1,2-c]pyrazol-1-yl)-N—((S)-2-(3,5-difluorophenyl)-1-(6-(3-hydroxy-3-methylbut-1-yn-1-yl)-3-(3-((2,2,2-trifluoroethyl)amino)-[1,2,4]triazolo[4,3-a]pyridin-8-yl)pyridin-2-yl)ethyl)acetamide]
inhibition at 0.2 µM (HIV-IIIb): 93% | inhibition at 2 µM (HIV-IIIb): 100% | CC50 at 5 days [1]: 27.8 µM

CCNS(=O)(=O)Nc1nn(C)c2c(-c3ccc(C#CC(C)(C)O)nc3[C@H](Cc3cc(F)cc(F)c3)NC(=O)Cn3nc(C(F)(F)F)c4c3C(F)(F)[C@@H]3C[C@H]43)cccc12 [Compound 53, 2-((3bS,4aR)-5,5-difluoro-3-(trifluoromethyl)-3b,4,4a,5-tetrahydro-1H-cyclopropa[3,4]cyclopenta[1,2-c]pyrazol-1-yl)-N—((S)-2-(3,5-difluorophenyl)-1-(3-(3-((N-ethylsulfamoyl)amino)-1-methyl-1H-indazol-7-yl)-6-(3-hydroxy-3-methylbut-1-yn-1-yl)pyridin-2-yl)ethyl)acetamide]
inhibition at 0.2 µM (HIV-IIIb): 92% | inhibition at 2 µM (HIV-IIIb): 92% | CC50 at 5 days [1]: 8.03 µM

Cn1nc(NS(C)(=O)=O)c2c(Cl)ccc(-c3ccc(C#CC(C)(C)O)nc3[C@H](Cc3cc(F)cc(F)c3)NC(=O)Cn3nc(C4(O)CC4)c4c3CCCC4)c21 [Compound 156E, (S)—N-(1-(3-(4 chloro-1-methyl-3-(methylsulfonamido)-1H-indazol-7-yl)-6-(3-hydroxy-3-methylbut-1-yn-1-yl)pyridin-2-yl)-2-(3,5-difluorophenyl)ethyl)-2-(3-(1-hydroxycyclopropyl)-4,5,6,7-tetrahydro-1H-indazol-1-yl)acetamide]
inhibition at 0.2 µM (HIV-IIIb): 78% | inhibition at 2 µM (HIV-IIIb): 78% | CC50 at 5 days [1]: 25.6 µM

CC(C)(O)C#Cc1ccc(-c2ccc3n[nH]c(=O)n3c2)c([C@H](Cc2cc(F)cc(F)c2)NC(=O)Cn2nc(C(F)(F)F)c3c2C(F)(F)[C@@H]2C[C@H]32)n1 [Compound 26, 2-((3bS,4aR)-5,5-difluoro-3-(trifluoromethyl)-3b,4,4a,5-tetrahydro-1H-cyclopropa[3,4]cyclopenta[1,2-c]pyrazol-1-yl)-N—((S)-2-(3,5-difluorophenyl)-1-(6-(3-hydroxy-3-methylbut-1-yn-1-yl)-3-(3-oxo-2,3-dihydro-[1,2,4]triazolo[4,3-a]pyridin-6-yl)pyridin-2-yl)ethyl)acetamide]
inhibition at 0.2 µM (HIV-IIIb): 84% | inhibition at 2 µM (HIV-IIIb): 100% | CC50 at 5 days [1]: 10 µM

Cn1nc(NS(C)(=O)=O)c2c(Cl)ccc(-c3ccc(C#CC(C)(O)CO)nc3[C@H](Cc3cc(F)cc(F)c3)NC(=O)Cn3nc(C(F)(F)F)c4c3C(F)(F)[C@@H]3C[C@H]43)c21 (stereo partly drawn) [Compound 151, N-((1S)-1-(3-(4-chloro-1-methyl-3-(methylsulfonamido)-1H-indazol-7-yl)-6-(3,4-dihydroxy-3-methylbut-1-yn-1-yl)pyridin-2-yl)-2-(3,5-difluorophenyl)ethyl)-2-((3bS,4aR)-5,5-difluoro-3-(trifluoromethyl)-3b,4,4a,5-tetrahydro-1H-cyclopropa[3,4]cyclopenta[1,2-c]pyrazol-1-yl)acetamide]
inhibition at 0.2 µM (HIV-IIIb): 92% | inhibition at 2 µM (HIV-IIIb): 92% | CC50 at 5 days [1]: 25.3 µM

Cn1nc(NS(C)(=O)=O)c2c(Cl)ccc(-c3ccc(C#CC(C)(C)O)nc3[C@H](Cc3cc(F)cc(F)c3)NC(=O)Cc3ccc4ccccc4c3)c21 [Compound 200, (S)—N-(1-(3-(4 chloro-1-methyl-3-(methylsulfonamido)-1H-indazol-7-yl)-6-(3-hydroxy-3-methylbut-1-yn-1-yl)pyridin-2-yl)-2-(3,5-difluorophenyl)ethyl)-2-(naphthalen-2-yl)acetamide]
inhibition at 0.2 µM (HIV-IIIb): 89% | inhibition at 2 µM (HIV-IIIb): 90% | CC50 at 5 days [1]: 12.2 µM

Cn1nc(NS(C)(=O)=O)c2c(Cl)ccc(-c3ccc(C#CC(C)(C)O)nc3[C@H](Cc3cc(F)cc(F)c3)NC(=O)Cn3nc4c(c3Cl)[C@H]3C[C@H]3C4(F)F)c21 [Compound 140M, N—((S)-1-(3-(4-chloro-1-methyl-3-(methylsulfonamido)-1H-indazol-7-yl)-6-(3-hydroxy-3-methylbut-1-yn-1-yl)pyridin-2-yl)-2-(3,5-difluorophenyl)ethyl)-2-((3b-S,4aR)-3-chloro-5,5-difluoro-3b,4,4a,5-tetrahydro-2H-cyclopropa[3,4]cyclopenta[1,2-c]pyrazol-2-yl)acetamide]
inhibition at 0.2 µM (HIV-IIIb): 98% | inhibition at 2 µM (HIV-IIIb): 98% | CC50 at 5 days [1]: 20.4 µM

Cn1nc(N)c2cccc(-c3ccc(C#CC(C)(C)O)nc3[C@H](Cc3cc(F)cc(F)c3)NC(=O)Cn3nc(C(F)F)c4c3C(F)(F)CCC4(F)F)c21 [Compound 31, (S)—N-(1-(3-(3-amino-1-methyl-1H-indazol-7-yl)-6-(3-hydroxy-3-methylbut-1-yn-1-yl)pyridin-2-yl)-2-(3,5-difluorophenyl)ethyl)-2-(3-(difluoromethyl)-4,4,7,7-tetrafluoro-4,5,6,7-tetrahydro-1H-indazol-1-yl)acetamide]
inhibition at 0.2 µM (HIV-IIIb): 89% | inhibition at 2 µM (HIV-IIIb): 89% | CC50 at 5 days [1]: 8.03 µM

Cn1nc(NS(C)(=O)=O)c2c(Cl)ccc(-c3cc(-c4cccnc4)cnc3[C@H](Cc3cc(F)cc(F)c3)NC(=O)Cn3nc(C(F)F)c4c3C(F)(F)[C@@H]3C[C@H]43)c21 [Compound 185C, N—((S)-1-(5-(4-chloro-1-methyl-3-(methylsulfonamido)-1H-indazol-7-yl)-[3,3′-bipyridin]-6-yl)-2-(3,5-difluorophenyl)ethyl)-2-((3bS,4aR)-3-(difluoromethyl)-5,5-difluoro-3b,4,4a,5-tetrahydro-1H-cyclopropa[3,4]cyclopenta[1,2-c]pyrazol-1-yl)acetamide]
inhibition at 0.2 µM (HIV-IIIb): 89% | inhibition at 2 µM (HIV-IIIb): 89% | CC50 at 5 days [1]: 18.2 µM

CC(C)(O)C#Cc1ccc(-c2cnc3[nH]ccc3c2F)c([C@H](Cc2cc(F)cc(F)c2)NC(=O)Cn2nc(C(F)(F)F)c3c2C(F)(F)[C@@H]2C[C@H]32)n1 [Compound 36C, 2-((3bS,4aR)-5,5-difluoro-3-(trifluoromethyl)-3b,4,4a,5-tetrahydro-1H-cyclopropa[3,4]cyclopenta[1,2-c]pyrazol-1-yl)-N—((S)-2-(3,5-difluorophenyl)-1-(3-(4-fluoro-1H-pyrrolo[2,3-b]pyridin-5-yl)-6-(3-hydroxy-3-methylbut-1-yn-1-yl)pyridin-2-yl)ethyl)acetamide]
inhibition at 0.2 µM (HIV-IIIb): 88% | inhibition at 2 µM (HIV-IIIb): 92% | CC50 at 5 days [1]: 3.15 µM

Cn1nc(NS(=O)(=O)c2cn[nH]c2)c2cccc(-c3ccc(C#CC(C)(C)O)nc3[C@H](Cc3cc(F)cc(F)c3)NC(=O)Cn3nc(C(F)(F)F)c4c3C(F)(F)[C@@H]3C[C@H]43)c21 [Compound 49, 2-((3bS,4aR)-5,5-difluoro-3-(trifluoromethyl)-3b,4,4a,5-tetrahydro-1H-cyclopropa[3,4]cyclopenta[1,2-c]pyrazol-1-yl)-N—((S)-2-(3,5-difluorophenyl)-1-(6-(3-hydroxy-3-methylbut-1-yn-1-yl)-3-(1-methyl-3-(1H-pyrazole-4-sulfonamido)-1H-indazol-7-yl)pyridin-2-yl)ethyl)acetamide]
inhibition at 0.2 µM (HIV-IIIb): 87% | inhibition at 2 µM (HIV-IIIb): 87% | CC50 at 5 days [1]: 24 µM

CCOC(=O)c1nn(CC(=O)N[C@@H](Cc2cc(F)cc(F)c2)c2nc(C#CC(C)(C)O)ccc2-c2ccc(Cl)c3c(NS(C)(=O)=O)nn(C)c23)c2c1[C@H]1C[C@H]1C2(F)F [Compound 158G, (3bS,4aR)-ethyl 1-(2-(((S)-1-(3-(4-chloro-1-methyl-3-(methylsulfonamido)-1H-indazol-7-yl)-6-(3-hydroxy-3-methylbut-1-yn-1-yl)pyridin-2-yl)-2-(3,5-difluorophenyl)ethyl)amino)-2-oxoethyl)-5,5-difluoro-3b,4,4a,5-tetrahydro-1H-cyclopropa[3,4]cyclopenta[1,2-c]pyrazole-3-carboxylate]
inhibition at 0.2 µM (HIV-IIIb): 71% | inhibition at 2 µM (HIV-IIIb): 71% | CC50 at 5 days [1]: 26.7 µM
